Results from patent publication US20230165851A1, “6'-METHOXYCINCHONAN-9-OLS FOR THE TREATMENT OF CORONAVIRAL INFECTIONS” (Immunologik GmbH, priority 2020, published 2023).
Where a name gives a salt, the structure may show the parent alone. Read-outs that look alike come from different tables or passages of the source.

Columns and labels:
SARS-CoV-2 [1] = format: cell-based; settings: infected Vero-B4 cells, 3 dpi; for inhibition of SARS-CoV-2 protein generation compared with same/respective concentration of chloroquine or hydroxychloroquine (densitometry): comparators at 10 μM
Vero-B4 cells = test: WST-1 cell viability (cytotoxicity) assay in non-infected Vero-B4 cells; settings: 3 days; for toxic effect (WST assay): antivirally effective concentrations
Experimental: Toxicity was assessed with a WST assay. Herein viable cells with an intact mitochondrial succinate-tetrazolium dehydrogenase system effect an enzymatic conversion of the feebly red tetrazolium salt WST-1 (4-[3-(4-iodophenyl)-2-(4-nitrophenyl)-2H-5-tetrazolio]-1,3 benzene disulfonate) into dark red formazan. This color change can be measured photometrically in a spectrophotometer. Thus, the WST assay is a very sensitive method for measuring the toxicity of substances on the cell metabolism.
In FIG. 4 the percentage of viable cells is depicted in comparison to untreated cells. The value for untreated cells was set to 100%. 1 μM staurosporine (an indolocarbazole compound from Streptomyces staurosporeus, an apoptosis inducer) was used as positive control.
In FIG. 8 the percentage of viable cells is depicted in comparison to untreated cells wherein the value for untreated cells was set to 100%. Again 1 μM staurosporine was used as positive control.

SARS-CoV-2 [2] = format: cell-based; settings: infected Vero-B4 cells, 3 dpi
[3] = quinine sulfate series up to 100 μM

With `C=C[C@H]1C[N@@]2CC[C@H]1C[C@@H]2[C@@H](O)c1ccnc2ccc(OC)cc12` [quinidine sulfate] the “block of virus replication (Western blot)” value (SARS-CoV-2 [1]; 20 μM) was “nearly complete block of virus replication”, the “inhibition of SARS-CoV-2 replication (Western blot)” value (SARS-CoV-2 [1]; 2.5, 5, 10 and 20 μM) was “dose-dependent inhibition” and the “generation of SARS-CoV-2 proteins (densitometric evaluation of nucleoprotein in virus fraction)” value (SARS-CoV-2 [1]; 2.5 to 20 μM) was “inhibited in a dose-dependent manner”. For the same compound, the “inhibition of SARS-CoV-2 protein generation compared with same/respective concentration of chloroquine or hydroxychloroquine (densitometry)” value (SARS-CoV-2 [1]) was “higher percentage”, the “reduction compared with 10 μM chloroquine or 10 μM hydroxychloroquine (Western blot)” value (SARS-CoV-2 [1]; quinidine sulfate series up to 20 μM) was “clearly higher” and the “toxic effect (WST assay)” value (Vero-B4 cells) was “did not display any significant toxic effect”. The “concentration up to which no toxic effect was detectable (WST assay)” value (Vero-B4 cells; tested 2.5 to 80 μM) was “Up to 80 μM”, the “reduction of SARS-CoV-2 RNA copies (qRT-PCR)” value (SARS-CoV-2 [2]; 2.5 μM, 5 μM, 10 μM and 20 μM) was “dose-dependent reduction” and the “reduction of SARS-CoV-2 RNA copies (qRT-PCR)” value (SARS-CoV-2 [2]; 10 μM) was “approximately 82%”. For the same compound, the “reduction compared with 10 μM chloroquine or 10 μM hydroxychloroquine (qRT-PCR)” value (SARS-CoV-2 [2]; 20 μM) was “significant better reduction” and the “reduction of SARS-CoV-2 RNA copies (qRT-PCR)” value (SARS-CoV-2 [2]; 20 μM) was “approximately 97%”.

With `C=C[C@H]1C[N@@]2CC[C@H]1C[C@H]2[C@H](O)c1ccnc2ccc(OC)cc12` [quinine sulfate] the “generation of SARS-CoV-2 proteins (densitometric evaluation of nucleoprotein in virus fraction)” value (SARS-CoV-2 [1]; 100 nM to 100 μM) was “inhibited in a dose-dependent manner”, the “inhibition of SARS-CoV-2 replication (Western blot)” value (SARS-CoV-2 [1]; 100 nM, 1 μM, 10 μM and 100 μM) was “dose-dependent inhibition” and the “block of virus replication (Western blot)” value (SARS-CoV-2 [1]; 100 μM) was “complete block of virus replication”. The “inhibition of SARS-CoV-2 protein generation compared with same/respective concentration of chloroquine or hydroxychloroquine (densitometry)” value (SARS-CoV-2 [1]) was “higher percentage”, the “reduction compared with 10 μM chloroquine or 10 μM hydroxychloroquine (Western blot)” value (SARS-CoV-2 [1]; [3]) was “significantly higher” and the “toxic effect (WST assay)” value (Vero-B4 cells) was “did not display any significant toxic effect”. For the same compound, the “reduction in the amount of SARS-CoV-2 RNA copies (qRT-PCR)” value (SARS-CoV-2 [2]; 100 nM, 1 μM, 10 μM and 100 μM) was “dose-dependent reduction”, the “reduction of SARS-CoV-2 RNA copies (qRT-PCR)” value (SARS-CoV-2 [2]; 10 μM) was “approximately 85%” and the “block of virus spread (qRT-PCR)” value (SARS-CoV-2 [2]; 100 μM) was “complete block of virus spread”. For the same compound, the “reduction compared with 10 μM chloroquine or 10 μM hydroxychloroquine (qRT-PCR)” value (SARS-CoV-2 [2]; [3]) was “significantly higher”.
